Reference: patent publication US7329681B2, “Inhibitors of IMPDH enzyme” (Vertex Pharmaceuticals Incorporated, priority 1996, dated 2008)

biological target: IMPDH human type II (Homo sapiens, UniProt P12268); test: IMPDH activity inhibition assay (spectrophotometric, NADH formation at 340 nm); format: biochemical; settings: IMPDH human type II, 15 to 50 nM enzyme, 37° C., tight-binding fit (Henderson); read-out: Ki

| SMILES | Ki |
| --- | --- |
| COc1cc(NC(=O)Nc2cccc(CNC(=O)OCC3CCCN(C(=O)OC(C)(C)C)C3)c2)ccc1-c1cnco1 (centres unmarked) [Compound 149] | 0.01 to 50 nM |
| COc1cc(NC(=O)Nc2cccc(CNC(=O)OC(CO)CO)c2)ccc1-c1cnco1 [Compound 151] | 51 to 1000 nM |
| COc1cc(NC(=O)Nc2cccc(CNC(=O)OCC3CCCCN3C(=O)OC(C)(C)C)c2)ccc1-c1cnco1 (centres unmarked) [Compound 152] | 51 to 1000 nM |
| COc1cc(NC(=O)Nc2cccc(CNC(=O)OC3CCCNC3)c2)ccc1-c1cnco1 (centres unmarked) [Compound 153] | 0.01 to 50 nM |
| COc1cc(NC(=O)Nc2cccc(CNC(=O)OCC3CCCCO3)c2)ccc1-c1cnco1 (centres unmarked) [Compound 154] | 0.01 to 50 nM |
| COc1cc(NC(=O)Nc2cccc(CNC(=O)OCC3CCNCC3)c2)ccc1-c1cnco1 [Compound 155] | 0.01 to 50 nM |
| COc1cc(NC(=O)Nc2cccc(CNC(=O)OCCCS(C)(=O)=O)c2)ccc1-c1cnco1 [Compound 157] | 51 to 1000 nM |
| COc1cc(NC(=O)Nc2cccc(CNC(=O)OCC3CCCNC3)c2)ccc1-c1cnco1 (centres unmarked) [Compound 158] | 51 to 1000 nM |
| COc1cc(NC(=O)Nc2cccc(CNC(=O)OCC3CCCCN3)c2)ccc1-c1cnco1 (centres unmarked) [Compound 159] | 0.01 to 50 nM |
| COc1cc(NC(=O)Nc2cccc(CNC(=O)OC3CCSC3)c2)ccc1-c1cnco1 (centres unmarked) [Compound 160] | 0.01 to 50 nM |
| COc1cc(NC(=O)Nc2cccc(CNC(=O)OC3CCCSC3)c2)ccc1-c1cnco1 (centres unmarked) [Compound 161] | 0.01 to 50 nM |
| COCCCOC(=O)NCc1cccc(NC(=O)Nc2ccc(-c3cnco3)c(OC)c2)c1 [Compound 162] | 0.01 to 50 nM |
| CC(=O)N(C)c1cccc(NC(=O)Nc2ccc(C#N)c(Cl)c2)c1 [Compound 163] | 51 to 1000 nM |
| COc1cc(NC(=O)Nc2cccc(N(C)C(C)=O)c2)ccc1C#N [Compound 164] | 51 to 1000 nM |
| CSc1cc(NC(=O)Nc2cccc(CNC(=O)O[C@H]3CCOC3)c2)ccc1C#N [Compound 165] | 0.01 to 50 nM |
| CC(=O)N(C)c1cccc(NC(=O)Nc2ccc(C#N)c(S(C)(=O)=O)c2)c1 [Compound 166] | > 10000 nM |
| CSc1cc(NC(=O)Nc2cccc(CNC(=O)O[C@H]3CCOC3)c2)ccc1C#N [Compound 168] | 51 to 1000 nM |
